{"source": "patent US20240110004A1", "about": "(Northwestern University, priority 2022, published 2024)", "key": {"[1]": {"test_system": "enzymes", "description": "Stability of PLPs Methods I: For enzyme-induced cleavage experiments, the molar concentration of enzymes was set to 0.1 μM. The concentration of side-chain peptides (having sequence identity of SEQ ID: 1) varied in the range of 50-200 μM. For each enzyme, temperature was set for optimal enzyme activity. In a typical experiment, P1 or HV3-TAT was dissolved in DPBS (pH 7.4) or hydrochloric acid solution (pH 2), to obtain a stock polymer/peptide solution with a peptide concentration of 200 μM. Next, 5 μL of enzyme stock solution (10 μM) was added into 500 μL of the polymer/peptide solution which was subsequently stirred in a preheated oil bath at 37° C. In this case, the molar ratio of peptide substrate to enzymes was 2000:1. During the cleavage, aliquots were taken for HPLC analysis at predetermined time points. Each degradation experiment was repeated three times. Enzyme pretreated P1 was also run on SDS-PAGE and visualized with Coomassie Blue staining."}, "[2]": {"test_system": "R6/2 mice", "assay": "Western blot of DARPP-32, PSD95 and BDNF in striatal lysates", "assay_type": "in vivo, mouse", "source_text": "FIG. 32A-32C: Histograms of Quantified Western Blot Results for Protein Levels (blots not shown). Actin was used as the loading control in the Western Blot, results are therefore depicted as ratios of the protein of interest signal relative to the actin signal in each sample. FIG. 32A depicts DARPP-32 levels in striatal lysates. p-value for: WT veh as compared to R62 veh: <0.0001; WT+P1 as compared to R62 veh: <0.0001; R62 veh as compared to R62+HV3-TAT: 0.0493; R62 veh as compared to R62+P1: 0.0027; R62+P1 as compared to R62+HV3-TAT: 0.7733. FIG. 32B depicts PSD95 levels in striatal lysates. p-value for: WT veh as compared to R62 veh: 0.0034; WT+P1 as compared to R62 veh: <0.0001; R62 veh as compared to R62+HV3-TAT: 0.0191; R62 veh as compared to R62+P1: <0.0001; R62+P1 as compared to R62+HV3-TAT: 0.1442. FIG. 32C depicts BDNF levels in striatal lysates. p-value for: WT veh as compared to R62 veh: <0.0001; WT+P1 as compared to R62 veh: <0.0001; R62 veh as compared to R62+HV3-TAT: 0.0120; R62 veh as compared to R62+P1: <0.0001; R62+P1 as compared to R62+HV3-TAT: 0.0257.\nIn vivo Efficacy Methods—Levels of Proteins of Interest: To further assess the efficacy of P1 in modulating HD neuropathology, the levels of cAMP-regulated phosphoprotein 32 kDa (DARPP-32), post-synaptic density protein (PSD95), and brain derived neurotrophic factor (BDNF) were determined in medium spiny neurons, each of which are decreased in the striatum of HD patients and R6/2 mouse models. Striatal lysates were generated from frozen striatal tissue from un-perfused sacrificed mice. Using a plate reader, protein concentrations were determined by protein assay dye (Bio-Rad). Protein stocks in lysis buffer were mixed with Laemmli buffer, loaded on SDS-PAGE, and transferred onto nitrocellulose membranes (Invitrogen). Membranes were probed with the primary antibodies for actin, DARPP-32, PSD95, and BDNF, and respective IgG-HRP secondary antibodies, followed by visualization of HRP with a blot scanner."}, "[3]": {"test_system": "R6/2 mice", "assay": "Immunohistochemistry of DARPP-32 in striatum", "assay_type": "in vivo, mouse", "details": "over saline control", "source_text": "FIG. 33: Quantification of immunohistochemistry of DARPP32 in striatum of WT and R6/2 mice after treatment with PLP or HV3-TAT (immunohistochemistry stain not shown). p-value for: WT veh as compared to R62 veh: 0.0010; WT+P1 as compared to R62 veh: 0.0019; R62 veh as compared to R62+HV3-TAT: 0.0496; R62 veh as compared to R62+P1: 0.0104; R62+HV3-TAT as compared to R62+P1: 0.9593.\nIn vivo Efficacy Methods—Immunohistochemistry: Mice were anaesthetized with isoflurane and transcardially perfused with PBS. After post-fixed with 4% paraformaldehyde, brains were sliced and frozen. Brain sections (20 μm, coronal) were used for immunohistochemical localization of DARPP-32 (1:14000, Abcam) using the IHC Select HRP/DAB kit (Millipore). Imaging of slices was conducted on an all-in-one fluorescence microscope (Keyence). The same image exposure times and threshold settings were used for sections from all treatment groups. Quantitation of DARPP-32 immunostaining was conducted using NIH image J software."}}, "note": "Where no end group is shown, it is not given here.", "data": [{"substance": "P1: PLP homopolymer having peptide side chains of SEQ ID: 1 (HVLVMSATRR), made by ROMP of norbornene peptide monomer M1 (also: side chains of polynorbornene homopolymer (PLP, ROMP of norbornene peptide monomer))", "values": [{"measurement": "molecular weight on SDS-PAGE after enzyme treatment", "setting": "[1]", "value": "maintained molecular weight"}, {"measurement": "BDNF protein levels in striatal lysates", "setting": "[2]; compared to the saline control", "value": "Significant increases"}, {"measurement": "PSD95 protein levels in striatal lysates", "setting": "[2]; compared to the saline control", "value": "Significant increases"}, {"measurement": "DARPP-32 levels in striatal lysates (immunoblotting)", "setting": "[2]; over saline control", "value": "significantly increased DARPP-32 levels"}, {"measurement": "DARPP-32 levels in striatum (immunohistochemistry)", "setting": "[3]", "value": "significantly increased DARPP-32 levels"}]}]}
